≈ marks a conversion by molar mass, not a printed value.
Legend:
[1] = Microsomal clearance, human microsomes
CYP3A4 = CYP3A4 (Homo sapiens, UniProt P08684); experiment: Cytochrome P450 inhibition assay, CYP3A4; conditions: liver microsomes
CYP2D6 = CYP2D6 (Homo sapiens, UniProt P10635); experiment: Cytochrome P450 inhibition assay, CYP2D6; conditions: liver microsomes
Solubility in 0.05M PO4- = assay type: physicochemical; conditions: for solubility: 0.05 M phosphate buffer, aqueous buffer
CYP2C9 = CYP2C9 (Homo sapiens, UniProt P11712); experiment: Cytochrome P450 inhibition assay, CYP2C9; conditions: liver microsomes
Chain of CYP2C9 (P11712 whole entry): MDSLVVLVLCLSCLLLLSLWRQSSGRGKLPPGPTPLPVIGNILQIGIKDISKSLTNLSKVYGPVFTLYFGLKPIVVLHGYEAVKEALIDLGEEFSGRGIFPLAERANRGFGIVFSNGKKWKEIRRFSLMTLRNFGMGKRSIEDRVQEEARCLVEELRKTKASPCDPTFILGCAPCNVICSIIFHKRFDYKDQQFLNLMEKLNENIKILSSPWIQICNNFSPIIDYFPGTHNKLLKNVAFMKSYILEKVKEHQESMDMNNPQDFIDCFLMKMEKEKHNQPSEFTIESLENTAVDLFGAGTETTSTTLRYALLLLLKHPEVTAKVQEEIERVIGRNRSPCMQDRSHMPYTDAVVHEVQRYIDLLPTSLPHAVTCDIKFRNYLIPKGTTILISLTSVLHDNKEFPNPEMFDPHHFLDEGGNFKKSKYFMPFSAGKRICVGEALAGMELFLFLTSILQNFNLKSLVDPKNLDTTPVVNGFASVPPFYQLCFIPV

Hepatocyte clearance = conditions: for hepatocyte CLint at 1 µM: human, primary pooled cryopreserved hepatocytes in suspension
[2] = Microsomal clearance, mouse microsomes
human MAGL = target: T1, human MAGL (Homo sapiens, UniProt Q99685); conditions: = pIC50 - cLogP
T1 sequence (Q99685 1-303): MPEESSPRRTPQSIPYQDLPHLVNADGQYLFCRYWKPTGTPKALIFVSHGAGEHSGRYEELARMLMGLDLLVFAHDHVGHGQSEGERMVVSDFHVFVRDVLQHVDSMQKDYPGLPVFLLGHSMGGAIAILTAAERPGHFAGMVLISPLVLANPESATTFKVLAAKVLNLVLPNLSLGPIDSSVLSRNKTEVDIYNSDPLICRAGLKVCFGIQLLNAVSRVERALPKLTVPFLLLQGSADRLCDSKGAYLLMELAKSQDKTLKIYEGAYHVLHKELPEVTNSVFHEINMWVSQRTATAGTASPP

[3] = Parallel Artificial Membrane Permeability (PAMPA); conditions: for Papp at 18 h, 150 µM: PAMPA, pH 6; for PAMPA permeability: donor buffer pH 6.0, 18-hour incubation
ABCB1 (MDR1, human P-gp) = ABCB1 (MDR1, human P-gp) (Homo sapiens, UniProt P08183); experiment: P-glycoprotein (P-gp) assay in LLC-PK1 cells transfected with ABCB1; conditions: human, LLC-PK1
Chain of ABCB1 (MDR1, human P-gp) (P08183 whole entry): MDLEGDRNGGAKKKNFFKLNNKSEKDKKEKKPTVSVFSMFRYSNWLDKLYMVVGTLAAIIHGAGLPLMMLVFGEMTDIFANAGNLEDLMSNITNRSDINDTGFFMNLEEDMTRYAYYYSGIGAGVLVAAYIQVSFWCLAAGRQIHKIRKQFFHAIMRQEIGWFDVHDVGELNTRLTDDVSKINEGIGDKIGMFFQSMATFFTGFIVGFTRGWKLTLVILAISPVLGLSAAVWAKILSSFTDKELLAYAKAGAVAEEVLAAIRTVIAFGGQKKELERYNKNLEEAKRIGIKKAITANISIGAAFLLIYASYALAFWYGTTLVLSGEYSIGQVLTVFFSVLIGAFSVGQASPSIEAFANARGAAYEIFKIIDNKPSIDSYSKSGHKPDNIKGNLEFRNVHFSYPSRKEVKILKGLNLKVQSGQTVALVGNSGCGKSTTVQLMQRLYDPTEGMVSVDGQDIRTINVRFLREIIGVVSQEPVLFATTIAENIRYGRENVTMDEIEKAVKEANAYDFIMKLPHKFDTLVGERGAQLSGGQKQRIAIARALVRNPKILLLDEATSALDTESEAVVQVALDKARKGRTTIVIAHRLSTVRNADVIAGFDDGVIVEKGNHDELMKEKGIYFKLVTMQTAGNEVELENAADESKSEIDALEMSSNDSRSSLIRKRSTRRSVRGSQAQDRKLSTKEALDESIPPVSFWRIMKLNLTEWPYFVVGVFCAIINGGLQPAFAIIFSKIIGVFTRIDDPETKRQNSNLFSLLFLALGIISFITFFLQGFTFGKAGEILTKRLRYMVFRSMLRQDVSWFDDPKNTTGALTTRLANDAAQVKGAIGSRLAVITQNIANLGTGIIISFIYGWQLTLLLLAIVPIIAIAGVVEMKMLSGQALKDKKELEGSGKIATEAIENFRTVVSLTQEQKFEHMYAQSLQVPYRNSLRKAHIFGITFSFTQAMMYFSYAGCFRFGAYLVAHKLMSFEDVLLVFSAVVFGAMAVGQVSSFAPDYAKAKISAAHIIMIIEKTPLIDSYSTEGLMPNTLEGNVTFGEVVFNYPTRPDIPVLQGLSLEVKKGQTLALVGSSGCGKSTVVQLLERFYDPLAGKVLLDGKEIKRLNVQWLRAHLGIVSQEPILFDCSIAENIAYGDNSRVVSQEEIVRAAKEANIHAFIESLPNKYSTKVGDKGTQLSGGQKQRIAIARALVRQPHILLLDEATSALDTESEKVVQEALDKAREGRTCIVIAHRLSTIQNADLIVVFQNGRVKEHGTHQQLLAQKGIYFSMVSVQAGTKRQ

Solubility in FESSIF = assay type: physicochemical

Chain of CYP2D6 (P10635 whole entry): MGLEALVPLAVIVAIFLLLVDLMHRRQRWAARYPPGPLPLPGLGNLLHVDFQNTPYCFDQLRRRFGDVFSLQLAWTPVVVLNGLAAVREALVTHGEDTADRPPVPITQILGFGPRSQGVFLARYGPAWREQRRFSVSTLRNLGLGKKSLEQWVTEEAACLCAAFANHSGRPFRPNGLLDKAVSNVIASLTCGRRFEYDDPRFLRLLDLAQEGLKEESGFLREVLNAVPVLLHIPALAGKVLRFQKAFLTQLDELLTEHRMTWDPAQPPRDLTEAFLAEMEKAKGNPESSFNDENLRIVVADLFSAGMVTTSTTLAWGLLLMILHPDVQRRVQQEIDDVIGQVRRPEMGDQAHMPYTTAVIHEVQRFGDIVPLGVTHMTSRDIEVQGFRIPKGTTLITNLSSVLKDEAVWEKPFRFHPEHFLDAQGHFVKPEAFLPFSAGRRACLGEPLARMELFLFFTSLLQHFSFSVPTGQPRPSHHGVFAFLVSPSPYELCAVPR
Chain of CYP3A4 (P08684 whole entry): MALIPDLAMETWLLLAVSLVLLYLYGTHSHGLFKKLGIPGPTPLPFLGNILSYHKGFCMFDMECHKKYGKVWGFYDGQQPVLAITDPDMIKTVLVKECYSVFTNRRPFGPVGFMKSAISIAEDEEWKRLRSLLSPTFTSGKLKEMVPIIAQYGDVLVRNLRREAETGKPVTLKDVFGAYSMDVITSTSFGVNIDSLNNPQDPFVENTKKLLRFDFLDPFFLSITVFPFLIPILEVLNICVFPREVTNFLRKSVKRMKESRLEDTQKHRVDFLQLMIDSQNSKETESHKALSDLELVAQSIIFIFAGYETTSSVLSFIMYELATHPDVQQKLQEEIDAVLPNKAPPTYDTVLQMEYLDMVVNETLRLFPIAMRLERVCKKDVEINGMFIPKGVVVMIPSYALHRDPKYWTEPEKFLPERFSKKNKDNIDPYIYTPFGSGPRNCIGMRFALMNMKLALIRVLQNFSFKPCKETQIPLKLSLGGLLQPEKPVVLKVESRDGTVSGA

Row | microsomal CLint at 1 µM [1] [µL/min/mg] | CYP3A4 Inhibition (CYP3A4) [%] | CYP2D6 Inhibition (CYP2D6) [%] | solubility (Solubility in 0.05M PO4-) [µg/mL] | CYP2C9 Inhibition (CYP2C9) [%] | hepatocyte CLint at 1 µM (Hepatocyte clearance) [µL/min/1e6 cells] | microsomal CLint at 1 µM [2] [µL/min/mg] | Papp at 18 h, 150 µM [3] [×10⁻⁶ cm/s] | Papp A→B (ABCB1 (MDR1, human P-gp)) [×10⁻⁶ cm/s] | solubility (Solubility in FESSIF) [µg/mL] | cell permeability ([3]; in words, SI2.2, Fig. S1 (PAMPA vs LipE)) | SMILES | Hepatocyte clearance (Hepatocyte clearance; cryopreserved hepatocytes of human origin, 1 µM compound) [µL/min/10^6 cells] | Solubility in 0.05M PO4- (Solubility in 0.05M PO4-) [µg/mL] | Lipophilic efficiency (LipE) (human MAGL) | PAMPA permeability [3]
1 | 853 | > 90 | 45 | < 0.05 | 62 |  |  |  |  |  |  | O=C(c1ccc2nc(-c3cnccc3C3CCCC3)oc2c1)N1CCN(c2nc3ccccc3c(=O)[nH]2)CC1 [Compound 18] |  |  |  | 
2 | 17 | 44 | 23 | < 1.1 | 49 | 4.6 | 47 |  |  |  |  | O=C(c1ccc2nc(-c3cnc(C4CCCCC4)cc3C3CCCCC3)oc2c1)N1CCN(c2nc3ccccc3c(=O)[nH]2)CC1 [Compound 19] |  |  |  | 
3 | 53 | 4 | 41 | < 0.05 | 74 | 47.7 | 114 | 3.7 | 10 |  |  | O=C(c1ccc2nc(-c3cccnc3C3CCCC3)oc2c1)N1CCN(c2nc3ccccc3c(=O)[nH]2)CC1 [Compound 21] |  |  |  | 
4 | 142 | -59 | 62 | < 0.05 | 23 | 104 |  | 2.7 | 8.1 |  |  | O=C(c1ccc2nc(-c3ccc(C4CCCC4)nc3)oc2c1)N1CCN(c2nc3ccccc3c(=O)[nH]2)CC1 [Compound 22] |  |  |  | 
5 | 69 | 8 | 26 | < 0.05 | 45 | 42.2 | 61 | 8.5 | 9.3 | 2.5 (≈ 4.73 µM) |  | O=C(c1ccc2nc(-c3cccnc3C3CCCC3)oc2c1)N1CCN(c2nc3nc(Cl)ccc3o2)CC1 [Compound 24] |  |  |  | 
6 | 10 | 70 | 34 | 84 | -5 | 1 | 10 | 0.02 |  |  |  | O=C(c1ccc2nc(-c3cnccc3C3CCNCC3)oc2c1)N1CCN(c2nc3nc(Cl)ccc3o2)CC1.O=CO [Compound 25] |  |  |  | 
7 |  |  |  |  |  |  |  |  |  |  |  | O=C(c1ccc2nc(-c3cccnc3C3(C4CCC4)CC3)oc2c1)N1CCN(c2nc3nc(Cl)ccc3o2)CC1 [Compound 28] |  |  | 2.31 | 5.8 10^-6 cm/s
8 | 563 | -40 | 3 | < 0.05 | -19 | 187 |  | 4.4 |  |  |  | O=C(c1ccc2nc(-c3ccc(C4CCCC4)nc3)oc2c1)N1CC2(CC(n3cnc(C4CC4)n3)C2)C1 [Compound 30] |  |  |  | 
9 | 431 | > 90 | 22 |  | 43 | 163 |  | 12.1 |  |  | potent cell permeability | O=C(c1ccc2nc(-c3cnccc3C3CCCC3)oc2c1)N1CC(N2CCN(C(=O)c3nccs3)CC2)C1 [Compound 31] |  |  |  | 

Row | SMILES | microsomal CLint at 1 µM [1] [µL/min/mg] | CYP3A4 Inhibition (CYP3A4) [%] | CYP2D6 Inhibition (CYP2D6) [%] | solubility (Solubility in 0.05M PO4-) [µg/mL] | CYP2C9 Inhibition (CYP2C9) [%] | hepatocyte CLint at 1 µM (Hepatocyte clearance) [µL/min/1e6 cells] | microsomal CLint at 1 µM [2] [µL/min/mg] | Papp at 18 h, 150 µM [3] [×10⁻⁶ cm/s] | Papp A→B (ABCB1 (MDR1, human P-gp)) [×10⁻⁶ cm/s] | solubility (Solubility in FESSIF) [µg/mL] | cell permeability ([3]; in words, SI2.2, Fig. S1 (PAMPA vs LipE)) | Hepatocyte clearance (Hepatocyte clearance; cryopreserved hepatocytes of human origin, 1 µM compound) [µL/min/10^6 cells] | Solubility in 0.05M PO4- (Solubility in 0.05M PO4-) [µg/mL] | Lipophilic efficiency (LipE) (human MAGL) | PAMPA permeability [3]
10 | O=C(c1ccc2nc(-c3ccc(C4(C5CCC5)CC4)nc3)oc2c1)N1CCN(c2nc3ccccc3c(=O)[nH]2)CC1 [Compound 20] |  | 49 | 16 |  | 24 |  |  |  |  |  |  | 84.2 | < 0.05 | 2.84 | 
11 | O=C(c1ccc2nc(-c3cccnc3C3CCNCC3)oc2c1)N1CCN(c2nc3nc(Cl)ccc3o2)CC1.O=CO [Compound 26] |  | 12 | 18 |  | -23 |  |  |  |  |  |  |  | > 590 |  | 0.01 10^-6 cm/s
